Values quoted from earlier work, collected in US9943488B2, “Gamma hydroxybutyric acid granules” (DEBREGEAS ET ASSOCIES PHARMA, priority 2011, dated 2018).

Details: after oral administration

O=C(O)CCCO [GHB, Gamma-hydroxybutyric acid]
Absolute bio-availability: 25%
